# Results from patent US7932270B2 (Cytokinetics, Inc., priority 2006, dated 2011).
# Molecular target: T1, chicken gizzard smooth muscle myosin subfragment-1 chemically crosslinked to cardiac or skeletal actin (Gallus gallus, UniProt P10587)
# T1 construct: chicken gizzard smooth muscle myosin subfragment-1; from tissue; host or cells: chicken gizzard
# Assay: Smooth muscle myosin ATPase dose response assay (pyruvate kinase/horseradish peroxidase/pyruvate oxidase-coupled, amplex red fluorescence)
# Type: biochemical
# Conditions: read-out: IC50 Arithmetic Mean
# Outline: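 Inhibition is measured in a peroxidase/pyruvate oxidase-linked format at pH 7.00 and 22° C, 0.15 mM ATP final. Myosin input is titrated to a target turnover since active fraction differs between preparations.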
# T1 sequence (P02607 2-151): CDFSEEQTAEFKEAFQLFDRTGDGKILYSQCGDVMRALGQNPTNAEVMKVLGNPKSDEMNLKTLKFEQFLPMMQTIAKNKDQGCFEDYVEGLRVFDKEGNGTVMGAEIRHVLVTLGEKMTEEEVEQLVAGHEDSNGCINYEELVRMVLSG
# T1 sequence (P10587 84-789): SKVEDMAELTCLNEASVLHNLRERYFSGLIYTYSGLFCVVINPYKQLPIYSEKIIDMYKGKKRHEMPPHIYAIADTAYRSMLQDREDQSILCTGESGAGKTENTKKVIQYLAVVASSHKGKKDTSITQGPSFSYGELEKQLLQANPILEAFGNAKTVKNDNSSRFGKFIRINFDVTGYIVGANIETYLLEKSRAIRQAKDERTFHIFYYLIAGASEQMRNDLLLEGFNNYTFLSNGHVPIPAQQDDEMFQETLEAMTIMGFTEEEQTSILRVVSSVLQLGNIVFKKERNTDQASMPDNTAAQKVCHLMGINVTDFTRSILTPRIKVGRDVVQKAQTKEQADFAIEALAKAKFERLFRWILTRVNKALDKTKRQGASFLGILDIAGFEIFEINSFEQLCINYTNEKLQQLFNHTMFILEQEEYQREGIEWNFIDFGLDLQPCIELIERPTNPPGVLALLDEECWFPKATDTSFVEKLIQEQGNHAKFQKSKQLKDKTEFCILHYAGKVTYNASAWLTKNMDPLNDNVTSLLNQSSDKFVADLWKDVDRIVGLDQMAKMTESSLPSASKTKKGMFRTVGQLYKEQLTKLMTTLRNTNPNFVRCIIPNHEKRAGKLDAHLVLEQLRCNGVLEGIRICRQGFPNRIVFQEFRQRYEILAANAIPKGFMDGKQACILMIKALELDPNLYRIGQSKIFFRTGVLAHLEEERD
row,SMILES,IC50
1,Cn1cc(-c2nc(NCCc3cccc(F)c3)c(C(=O)NC[C@H]3CCCN3C(=O)CNC(=O)OC(C)(C)C)cc2F)cn1 [N-[((2R)-1-{2-[(tert-butoxy)carbonylamino]acetyl}pyrrolidin-2-yl)methyl](5-fluoro-2-{[2-(3-fluorophenyl)ethyl]amino}-6-(1-methylpyrazol-4-yl)(3-pyridyl))carboxamide],625 nM
2,CC(C)(C)OC(=O)NCC(=O)N1CCC[C@@H]1CNC(=O)c1cc(F)c(-c2cn[nH]c2)nc1NCCc1cccc(F)c1 [N-[((2R)-1-{2-[(tert-butoxy)carbonylamino]acetyl}pyrrolidin-2-yl)methyl](5-fluoro-2-{[2-(3-fluorophenyl)ethyl]amino}-6-pyrazol-4-yl(3-pyridyl))carboxamide],1080 nM
3,CC(C)(C)OC(=O)NCC(=O)N1CCC[C@@H]1CNC(=O)c1cc(F)c(-c2ccccc2C#N)nc1NCCc1cccc(F)c1 [N-[((2R)-1-{2-[(tert-butoxy)carbonylamino]acetyl}pyrrolidin-2-yl)methyl](6-(2-cyanophenyl)-5-fluoro-2-{[2-(3-fluorophenyl)ethyl]amino}(3-pyridyl))carboxamide],2790 nM
4,CC(C)(C)OC(=O)NCCN1CCC[C@@H]1CNC(=O)c1ccc(-c2ccccc2C#N)nc1NCCc1cccc(F)c1 [N-[((2R)-1-{2-[(tert-butoxy)carbonylamino]ethyl}pyrrolidin-2-yl)methyl](6-(2-cyanophenyl)-2-{[2-(3-fluorophenyl)ethyl]amino}(3-pyridyl))carboxamide],3690 nM
5,Cn1cc(-c2ccc(C(=O)NC[C@H]3CCCN3C(=O)CCNC(=O)OC(C)(C)C)c(NCCc3cccc(F)c3)n2)cn1 [N-[((2R)-1-{3-[(tert-butoxy)carbonylamino]propanoyl}pyrrolidin-2-yl)methyl](2-{[2-(3-fluorophenyl)ethyl]amino}-6-(1-methylpyrazol-4-yl)(3-pyridyl))carboxamide],5030 nM
6,Cn1cc(-c2nc(NCCc3cccc(F)c3)c(C(=O)NC[C@H]3CCCN3C(=O)CCNC(=O)OC(C)(C)C)cc2F)cn1 [N-[((2R)-1-{3-[(tert-butoxy)carbonylamino]propanoyl}pyrrolidin-2-yl)methyl](5-fluoro-2-{[2-(3-fluorophenyl)ethyl]amino}-6-(1-methylpyrazol-4-yl)(3-pyridyl))carboxamide],505 nM
7,CC(C)(C)OC(=O)NCCC(=O)N1CCC[C@@H]1CNC(=O)c1cc(F)c(-c2cn[nH]c2)nc1NCCc1cccc(F)c1 [N-[((2R)-1-{3-[(tert-butoxy)carbonylamino]propanoyl}pyrrolidin-2-yl)methyl](5-fluoro-2-{[2-(3-fluorophenyl)ethyl]amino}-6-pyrazol-4-yl(3-pyridyl))carboxamide],980 nM
8,CC(C)(C)OC(=O)NCCC(=O)N1CCC[C@@H]1CNC(=O)c1cc(F)c(-c2ccccc2C#N)nc1NCCc1cccc(F)c1 [N-[((2R)-1-{3-[(tert-butoxy)carbonylamino]propanoyl}pyrrolidin-2-yl)methyl](6-(2-cyanophenyl)-5-fluoro-2-{[2-(3-fluorophenyl)ethyl]amino}(3-pyridyl))carboxamide],2770 nM
9,Cc1cc(C(=O)NC[C@H]2CCC(=O)N2CCCNC(=O)OC(C)(C)C)c(NCCc2cccc(F)c2)nc1-c1cnn(C)c1 [N-[((2R)-1-{3-[(tert-butoxy)carbonylamino]propyl}-5-oxopyrrolidin-2-yl)methyl](2-{[2-(3-fluorophenyl)ethyl]amino}-5-methyl-6-(1-methylpyrazol-4-yl)(3-pyridyl))carboxamide],1460 nM
10,Cn1cc(-c2ccc(C(=O)NC[C@H]3CCC(=O)N3CCCNC(=O)OC(C)(C)C)c(NCCc3cccc(F)c3)n2)cn1 [N-[((2R)-1-{3-[(tert-butoxy)carbonylamino]propyl}-5-oxopyrrolidin-2-yl)methyl](2-{[2-(3-fluorophenyl)ethyl]amino}-6-(1-methylpyrazol-4-yl)(3-pyridyl))carboxamide],1340 nM
11,Cn1cc(-c2nc(NCCc3cccc(F)c3)c(C(=O)NC[C@H]3CCC(=O)N3CCCNC(=O)OC(C)(C)C)cc2Cl)cn1 [N-[((2R)-1-{3-[(tert-butoxy)carbonylamino]propyl}-5-oxopyrrolidin-2-yl)methyl](5-chloro-2-{[2-(3-fluorophenyl)ethyl]amino}-6-(1-methylpyrazol-4-yl)(3-pyridyl))carboxamide],443 nM
12,CC(C)(C)OC(=O)NCCCN1C(=O)CC[C@@H]1CNC(=O)c1cc(C#N)c(-c2cn[nH]c2)nc1NCCc1cccc(F)c1 [N-[((2R)-1-{3-[(tert-butoxy)carbonylamino]propyl}-5-oxopyrrolidin-2-yl)methyl](5-cyano-2-{[2-(3-fluorophenyl)ethyl]amino}-6-pyrazol-4-yl(3-pyridyl))carboxamide],3510 nM
13,Cn1cc(-c2nc(NCCc3cccc(F)c3)c(C(=O)NC[C@H]3CCC(=O)N3CCCNC(=O)OC(C)(C)C)cc2F)cn1 [N-[((2R)-1-{3-[(tert-butoxy)carbonylamino]propyl}-5-oxopyrrolidin-2-yl)methyl](5-fluoro-2-{[2-(3-fluorophenyl)ethyl]amino}-6-(1-methylpyrazol-4-yl)(3-pyridyl))carboxamide],322 nM
14,CC(C)(C)OC(=O)NCCCN1C(=O)CC[C@@H]1CNC(=O)c1cc(F)c(-c2cn[nH]c2)nc1NCCc1cccc(F)c1 [N-[((2R)-1-{3-[(tert-butoxy)carbonylamino]propyl}-5-oxopyrrolidin-2-yl)methyl](5-fluoro-2-{[2-(3-fluorophenyl)ethyl]amino}-6-pyrazol-4-yl(3-pyridyl))carboxamide],354 nM
15,CC(C)(C)OC(=O)NCCCN1C(=O)CC[C@@H]1CNC(=O)c1ccc(-c2ccccc2C#N)nc1NCCc1cccc(F)c1 [N-[((2R)-1-{3-[(tert-butoxy)carbonylamino]propyl}-5-oxopyrrolidin-2-yl)methyl](6-(2-cyanophenyl)-2-{[2-(3-fluorophenyl)ethyl]amino}(3-pyridyl))carboxamide],518 nM
16,CC(C)(C)OC(=O)NCCCN1C(=O)CC[C@@H]1CNC(=O)c1cc(F)c(-c2ccccc2C#N)nc1NCCc1cccc(F)c1 [N-[((2R)-1-{3-[(tert-butoxy)carbonylamino]propyl}-5-oxopyrrolidin-2-yl)methyl](6-(2-cyanophenyl)-5-fluoro-2-{[2-(3-fluorophenyl)ethyl]amino}(3-pyridyl))carboxamide],845 nM
17,CC(C)(C)OC(=O)NCCCN1C(=O)CCC[C@@H]1CNC(=O)c1ccc(-c2ccccc2C#N)nc1NCCc1cccc(F)c1 [N-[((2R)-1-{3-[(tert-butoxy)carbonylamino]propyl}-6-oxo(2-piperidyl))methyl](6-(2-cyanophenyl)-2-{[2-(3-fluorophenyl)ethyl]amino}(3-pyridyl))carboxamide],392 nM
18,CC(C)(C)OC(=O)NCCCN1CCC[C@@H]1CNC(=O)c1ccc(-c2ccccc2C#N)nc1NCCc1cccc(F)c1 [N-[((2R)-1-{3-[(tert-butoxy)carbonylamino]propyl}pyrrolidin-2-yl)methyl](6-(2-cyanophenyl)-2-{[2-(3-fluorophenyl)ethyl]amino}(3-pyridyl))carboxamide],1340 nM
19,Cn1cc(-c2nc(NCCc3cccc(F)c3)c(C(=O)NC[C@H]3CCN3C(=O)CCCNC(=O)OC(C)(C)C)cc2F)cn1 [N-[((2R)-1-{4-[(tert-butoxy)carbonylamino]butanoyl}azetidin-2-yl)methyl](5-fluoro-2-{[2-(3-fluorophenyl)ethyl]amino}-6-(1-methylpyrazol-4-yl)(3-pyridyl))carboxamide],122 nM
20,Cc1cc(C(=O)NC[C@H]2CCCN2C(=O)CCCNC(=O)OC(C)(C)C)c(NCCc2cccc(F)c2)nc1-c1cnn(C)c1 [N-[((2R)-1-{4-[(tert-butoxy)carbonylamino]butanoyl}pyrrolidin-2-yl)methyl](2-{[2-(3-fluorophenyl)ethyl]amino}-5-methyl-6-(1-methylpyrazol-4-yl)(3-pyridyl))carboxamide],2260 nM
21,Cn1cc(-c2ccc(C(=O)NC[C@H]3CCCN3C(=O)CCCNC(=O)OC(C)(C)C)c(NCCc3cccc(F)c3)n2)cn1 [N-[((2R)-1-{4-[(tert-butoxy)carbonylamino]butanoyl}pyrrolidin-2-yl)methyl](2-{[2-(3-fluorophenyl)ethyl]amino}-6-(1-methylpyrazol-4-yl)(3-pyridyl))carboxamide],3650 nM
22,Cn1cc(-c2nc(NCCc3cccc(F)c3)c(C(=O)NC[C@H]3CCCN3C(=O)CCCNC(=O)OC(C)(C)C)cc2Cl)cn1 [N-[((2R)-1-{4-[(tert-butoxy)carbonylamino]butanoyl}pyrrolidin-2-yl)methyl](5-chloro-2-{[2-(3-fluorophenyl)ethyl]amino}-6-(1-methylpyrazol-4-yl)(3-pyridyl))carboxamide],683 nM
23,Cn1cc(-c2nc(NCCc3cccc(F)c3)c(C(=O)NC[C@H]3CCCN3C(=O)CCCNC(=O)OC(C)(C)C)cc2C#N)cn1 [N-[((2R)-1-{4-[(tert-butoxy)carbonylamino]butanoyl}pyrrolidin-2-yl)methyl](5-cyano-2-{[2-(3-fluorophenyl)ethyl]amino}-6-(1-methylpyrazol-4-yl)(3-pyridyl))carboxamide],1610 nM
24,CC(C)(C)OC(=O)NCCCC(=O)N1CCC[C@@H]1CNC(=O)c1cc(C#N)c(-c2cn[nH]c2)nc1NCCc1cccc(F)c1 [N-[((2R)-1-{4-[(tert-butoxy)carbonylamino]butanoyl}pyrrolidin-2-yl)methyl](5-cyano-2-{[2-(3-fluorophenyl)ethyl]amino}-6-pyrazol-4-yl(3-pyridyl))carboxamide],3420 nM
25,Cn1cc(-c2nc(NCCc3cccc(F)c3)c(C(=O)NC[C@H]3CCCN3C(=O)CCCNC(=O)OC(C)(C)C)cc2F)cn1 [N-[((2R)-1-{4-[(tert-butoxy)carbonylamino]butanoyl}pyrrolidin-2-yl)methyl](5-fluoro-2-{[2-(3-fluorophenyl)ethyl]amino}-6-(1-methylpyrazol-4-yl)(3-pyridyl))carboxamide],483 nM
